Source: US8022180B2, “Method for preventing and treating Alzheimer's disease” (Affiris Forschungs-und Entwicklungs GmbH, priority 2004, dated 2011)
Entries after “also recorded” stand apart in the source; their conditions may differ. Where a SMILES comes first, the peptide text is derived from it. Where no end group is shown, it is not given here. [ ]: non-standard residue; d: D form. Tle = CC(C)(C)[C@H](N)C(=O)O

Test system: monoclonal antibody specific for the natural N-terminal Aβ42 sequence DAEFRH
Assay: Inhibition assay: mimotope peptides compete with plate-bound DAEFRH-BSA for recognition by the biotinylated monoclonal antibody (ELISA)
Assay type: binding, mice
Parameters: key to inhibition (s/m/—): s: strong inhibition; m: moderate inhibition; —: no inhibition
Conditions: for inhibition of epitope recognition by the monoclonal antibody (in words): FIGS. 2-9; for Inhibitory capacity of mimotopes: summary Tables 1 and 2, in words; for IC50 (inhibition of monoclonal antibody binding to the original epitope): competition ELISA, plate-bound DAEFRH-BSA, peptides 20 min at 37° C.; for inhibition (s/m/—): peptides of the new screening round and 5mers with non natural amino acids
Text: 1.: Generation of Monoclonal Antibodies (mAb) to Detect Aβ42-Derived Peptide Species with Free N-Terminus (Free Aspartic Acid at the N-Terminus)
Mice are vaccinated with the 6mer peptide DAEFRH (SEQ ID NO: 26) (natural N-terminal Aβ42 sequence) linked to the protein bovine serum albumin BSA (to make use of the hapten-carrier-effect), emulsified in CFA (first injection) and IFA (booster injections). DAEFRH (SEQ ID NO: 26)-peptide-specific, antibody-producing hybridomas are detected by ELISA (DAEFRH (SEQ ID NO: 26)-peptide-coated ELISA plates).
FIGS. 2 and 3 describe the results of inhibition assays performed with mimotope peptides included in and obtained from the 5 libraries (as described). The mimotope peptides compete with the original epitope for recognition by the monoclonal antibody. Original epitope and mimotope peptides contain an additional C at the C-terminus for coupling to a protein carrier (if desired).
(§1) After blocking with PBS/BSA 1% (200 μl/well, 12 h, 4° C.), the plates are washed 3× times with PBS/Tween. Then, biotinylated monoclonal antibody (1:2000, 50 μl/well) and peptides (50 μl/well) at 50, 5, 0.5, 0.05, 0.005, and 0.0005 μg/ml are added for 20 min. at 37° C. The plates are washed 3× times with PBS/Tween and are incubated with horseradish peroxidase (HRP)-labeled streptavidin (100 μl/well, 30 min, RT). The plates are washed 5× times with PBS/Tween and are incubated with ABTS+H2O2 (0.1% w/v, 10 to 45 min) and the reaction is stopped with citric acid followed by photometric evaluation (wavelength 405 nm).
FIGS. 4 and 5 describe the results of inhibition assays performed with mimotope peptides included in and obtained from the 5 libraries (as described). The mimotope peptides compete with the original epitope for recognition by the monoclonal antibody. Original epitope and mimotope peptides contain an additional C at the C-terminus (position 7) for coupling to a protein carrier (if desired).
as §1, with “different concentrations” for “50, 5, 0.5, 0.05, 0.005, and 0.0005 μg/ml”
FIGS. 6 to 8 describe the results of inhibition assays performed with mimotope peptides included in and obtained from the 2 libraries (as described above). The mimotope peptides compete with the original epitope for recognition by the monoclonal antibody. Original epitope and mimotope peptides contain an additional C at the C-terminus (position 7 or position 8, respectively) for coupling to a protein carrier (if desired).

Compound | inhibition of epitope recognition by the monoclonal antibody (in words) | Inhibitory capacity of mimotopes | IC50 (inhibition of monoclonal antibody binding to the original epitope) | inhibition (s/m/—) | concentration at which the peptide is only inhibitory (only inhibitory at a (relatively) high concentration) [µg/mL]
CC[C@H](C)[C@H](NC(=O)[C@H](CCCNC(=N)N)NC(=O)[C@H](CC(C)C)NC(=O)[C@H](CCC(=O)O)NC(=O)[C@H](CCCNC(=N)N)NC(=O)[C@@H](N)CC(=O)O)C(=O)N[C@@H](CS)C(=O)O [Peptide 1235, DRELRI] | block epitope recognition | strong |  |  | 
CC[C@H](C)[C@H](NC(=O)[C@H](CCCCN)NC(=O)[C@H](CC(C)C)NC(=O)[C@H](CCC(=O)O)NC(=O)[C@H](CCCCN)NC(=O)[C@@H](N)CC(=O)O)C(=O)N[C@@H](CS)C(=O)O [Peptide 1236, DKELKI] | block epitope recognition | weak |  |  | 
CC[C@H](C)[C@H](NC(=O)[C@H](CCCCN)NC(=O)[C@H](CC(C)C)NC(=O)[C@H](CCC(=O)O)NC(=O)[C@H](CCCNC(=N)N)NC(=O)[C@@H](N)CC(=O)O)C(=O)N[C@@H](CS)C(=O)O [Peptide 1237, DRELKI] | block epitope recognition | weak |  |  | 
N=C(N)NCCC[C@H](NC(=O)[C@H](Cc1ccccc1)NC(=O)[C@H](CCC(=O)O)NC(=O)[C@H](Cc1ccc(O)cc1)NC(=O)[C@@H](N)CCC(=O)O)C(=O)NCC(=O)N[C@@H](CS)C(=O)O [Peptide 1239, EYEFRG] | block epitope recognition | intermediate | more than 0.5 μg/ml |  | 
C[C@H](NC(=O)[C@H](CC(=O)O)NC(=O)[C@H](CCCNC(=N)N)NC(=O)[C@H](Cc1ccccc1)NC(=O)[C@H](CCC(=O)O)NC(=O)[C@H](Cc1c[nH]c2ccccc12)NC(=O)[C@@H](N)CC(=O)O)C(=O)N[C@@H](CS)C(=O)O [Peptide 1241, DWEFRDA] | block epitope recognition | strong |  |  | 
CC[C@H](C)[C@H](NC(=O)[C@H](CCCNC(=N)N)NC(=O)[C@H](CC(C)C)NC(=O)[C@H](CCC(=O)O)NC(=O)[C@H](CCCCN)NC(=O)[C@@H](N)CC(=O)O)C(=O)N[C@@H](CS)C(=O)O [Peptide 3001, DKELRI] | block epitope recognition | strong |  |  | 
CC[C@H](C)[C@H](NC(=O)[C@H](CCCNC(=N)N)NC(=O)[C@H](CC(C)C)NC(=O)[C@H](CCC(=O)O)NC(=O)[C@H](Cc1c[nH]c2ccccc12)NC(=O)[C@@H](N)CC(=O)O)C(=O)N[C@@H](CS)C(=O)O [Peptide 3002, DWELRI] | block epitope recognition | intermediate |  |  | 
C[C@H](NC(=O)[C@@H](N)Cc1ccc(O)cc1)C(=O)N[C@@H](CCC(=O)O)C(=O)N[C@@H](Cc1ccccc1)C(=O)N[C@@H](CCCNC(=N)N)C(=O)NCC(=O)N[C@@H](CS)C(=O)O [Peptide 3005, YAEFRG] | block epitope recognition | intermediate |  |  | 
C[C@H](NC(=O)[C@@H](N)CCC(=O)O)C(=O)N[C@@H](CCC(=O)O)C(=O)N[C@@H](Cc1ccccc1)C(=O)N[C@@H](CCCNC(=N)N)C(=O)NCC(=O)N[C@@H](CS)C(=O)O [Peptide 3006, EAEFRG] | block epitope recognition | strong |  |  | 
N=C(N)NCCC[C@H](NC(=O)[C@H](Cc1ccccc1)NC(=O)[C@H](CCC(=O)O)NC(=O)[C@H](Cc1ccc(O)cc1)NC(=O)[C@@H](N)CC(=O)O)C(=O)NCC(=O)N[C@@H](CS)C(=O)O [Peptide 3007, DYEFRG] | block epitope recognition | strong |  |  | 
CC(C)C[C@H](NC(=O)[C@@H](N)CCC(=O)O)C(=O)N[C@@H](CCC(=O)O)C(=O)N[C@@H](Cc1ccccc1)C(=O)N[C@@H](CCCNC(=N)N)C(=O)NCC(=O)N[C@@H](CS)C(=O)O [Peptide 3008, ELEFRG] |  | weak |  |  | 
N=C(N)NCCC[C@H](NC(=O)[C@H](Cc1ccccc1)NC(=O)[C@H](CCC(=O)O)NC(=O)[C@H](Cc1ccccc1)NC(=O)[C@@H](N)CO)C(=O)NCC(=O)N[C@@H](CS)C(=O)O [Peptide 3009, SFEFRG] |  | weak |  |  | 
C[C@@H](O)[C@H](NC(=O)[C@H](CCCNC(=N)N)NC(=O)[C@H](Cc1ccccc1)NC(=O)[C@H](CCC(=O)O)NC(=O)[C@H](Cc1c[nH]c2ccccc12)NC(=O)[C@@H](N)CO)C(=O)N[C@@H](CS)C(=O)O [Peptide 4002, SWEFRT] | block epitope recognition | strong | less than 0.4 μg/ml |  | 
CCCC[C@H](NC(=O)[C@H](CCC(=O)O)NC(=O)[C@H](CCCCN)NC(=O)[C@@H](N)CC(=O)O)C(=O)N[C@@H](CCCNC(=N)N)C(=O)N[C@@H](CS)C(=O)O [Peptide 4062, DKE(Nle)R] (HELM PEPTIDE1{D.K.E.[Nle].R.C}$$$$V2.0) | block epitope recognition |  |  | m | 
CCC[C@H](NC(=O)[C@H](CCC(=O)O)NC(=O)[C@H](CCCCN)NC(=O)[C@@H](N)CC(=O)O)C(=O)N[C@@H](CCCNC(=N)N)C(=O)N[C@@H](CS)C(=O)O [Peptide 4063, DKE(Nva)R] (HELM PEPTIDE1{D.K.E.[Nva].R.C}$$$$V2.0) | block epitope recognition |  |  | m | 
N=C(N)NCCC[C@H](NC(=O)[C@H](CC1CCCCC1)NC(=O)[C@H](CCC(=O)O)NC(=O)[C@H](CCCCN)NC(=O)[C@@H](N)CC(=O)O)C(=O)N[C@@H](CS)C(=O)O [Peptide 4064, DKEC(Cha)R] | block epitope recognition |  |  | m | 
ATYAYWN [Peptide 4038] | not inhibitory at the concentrations tested |  |  | — | 
DAEFRH (not fully specified (C-terminus); listed as Homo sapiens) [Peptide 1737, reference compound] | inhibits recognition by the monoclonal antibody; also recorded: can successfully compete |  |  |  | 
DAEFRWP [Peptide 4011] | strongly block epitope recognition |  |  | s | 
DIGWRG [Peptide 3011] | not inhibitory at the concentrations tested | none |  |  | 
DISFRG [Peptide 3010] | not inhibitory at the concentrations tested | none |  |  | 
DKE(tBuGly)R (DKE[Tle]R) [Peptide 4061] | not inhibitory at the concentrations tested |  |  | — | 
DNEFRSP [Peptide 4012] | moderately inhibit binding |  |  | s | 
GAEFRFT [Peptide 4014] | moderately inhibit binding |  |  | m | 
GREFRN [Peptide 4003] | block epitope recognition | weak |  |  | 10
